The numbers were not newly measured in patent US20120121615A1, “ALANINYL MAYTANSINOL ANTIBODY CONJUGATES” (priority 2010, published 2012), which cites them from elsewhere.

Each structure is given as a SMILES string.

As to `COc1cc2cc(c1Cl)N(C)C(=O)C[C@H](OC(=O)[C@H](C)N(C)C(C)=O)[C@]1(C)O[C@H]1[C@H](C)[C@@H]1C[C@@](O)(NC(=O)O1)[C@H](OC)/C=C/C=C(\C)C2` [maytansine], the “dose-limiting toxicity (DLT)” value (2.0 mg/m^2 every 3 weeks, single dose or 3 consecutive days) was “gastrointestinal, consisting of nausea, vomiting, and diarrhea”. Also, the “activity in the clinic” value (at doses that could be safely delivered) is recorded as “modest”.
